Reference: patent US20160287726A1, “CATIONIC CONTRAST AGENTS AND METHODS OF USING THE SAME” (The Trustees of the University of Pennsylvania, priority 2015, published 2016)

Columns and labels:
[1] = Demetallation assay in 1M HCl; format: physicochemical; conditions: 2.5 mM, 37° C.
Experimental: Since transmetallation was not observed in serum supplemented with ZnCl2, the stability of the various Gd complexes were further evaluated by monitoring demetallation in a highly acidic, non-physiologic solution (1M HCl). Even under these harsh conditions, Gd remained complexed with Compound 6 for at least 24 hours (FIG. 3B). […] Since a measurement of the T1 relaxation time could not be acquired at t=0 for this assay, the relaxation ratio could not be calculated. Instead, demetallation was monitored strictly by changes in the T1 relaxation time. In instances of demetallation, the T1 relaxation time moved towards that of free Gd.
Demetallation Assay A 300 μL solution of 2.5 mM Gd-compound was incubated at 37° C. in 1M HCl and the longitudinal relaxation times were acquired at appropriate time points. The relaxation time was then plotted against time.

[2] = Transmetallation assay with ZnCl2 in fetal bovine serum; format: physicochemical; conditions: 2.5 mM complex, 2.5 mM ZnCl2, fetal bovine serum, pH 7.4, 37° C., over 72 hours
Experimental: To directly compare the stability of Complex A to Gd-DTPA (Magnevist®) and Gd-DOTA (also known as gadoteric acid), a transmetallation assay using equimolar concentrations of ZnCl2 was performed in fetal bovine serum. Transmetallation was monitored as a function of time by calculating the relaxation ratio, R1(t)/R1(0), where R1(t) is the longitudinal Relaxivity at time t and R1(0) is the longitudinal Relaxivity in the absence of ZnCl2 (i.e. time 0).
Transmetallation of Gd^3+ ion by Zinc^2+ ion was performed in fetal bovine serum. The solution contained 4 mL of 2.5 mM Gd-complex and 2.5 mM ZnCl2 at pH 7.4. The mixture was stirred at 37° C. throughout the experiment while 300 μL aliquot was taken up at the appropriate time for measurement of the longitudinal relaxation time. The water proton relaxation times were measured using a Bruker mq60 tabletop MR relaxometer operating at 1.41T. Ratio of reverse relaxation time at each time point (R1(t)) and relaxation time at time zero (R1(0)) was plotted against time.

[3] = system: GAG-rich cartilage (articular cartilage microparticles from juvenile bovine femurs); test: Electrostatic interaction with cartilage microparticles (T1 of supernatant); format: binding; conditions: normalized to average T1 of respective control
Experimental: To assess whether Gd-DOTA-Am4 interacts electrostatically with GAG-rich cartilage, articular cartilage from juvenile bovine femurs was ground into microparticles. These microparticles were then mixed and incubated with Gd-DOTA, Gd-DTPA, or Gd-DOTA-Am4. The microparticles were then pelleted and the T1 relaxation time of the supernatant was measured. Measurements were compared to analogous control Gd complexes that were not incubated with cartilage microparticles (FIG. 5). All samples were normalized to the average T1 relaxation time of their respective control.

[4] = Relaxivity measurements (longitudinal relaxivity r1); format: physicochemical; conditions: Bruker mq60 MR relaxometer, 1.41 T (60 MHz), saline pH 7.4
Experimental: Compound2 was prepared by bromination of methyl acrylate using bromine in chloroform at room temperature, while compound 3 was prepared by slow addition of diethylamine into compound 2 in ether at 0° C. The methyl and ethyl protecting groups were efficiently removed with a methanol:NaOH (0.5 M) solvent cocktail (40:60) for 48 h. The solution was neutralized with a 2 M HCl solution and dried. The residue was redissolved in pure methanol, and the precipitate that formed was filtered and the solvent dried in vacuuo to yield compound 6. […] In comparison, the longitudinal relaxivity of Magnevist® was measured to be 3.9 mM^−1s^−1 (FIG. 2B).
Longitudinal relaxation times (T1) were measured in saline at pH 7.4 using a Bruker mq60 tabletop MR relaxometer operating at 1.41 T. The longitudinal relaxivity (r1) of the complex was calculated by plotting the reciprocal of the T1 relaxation time versus the gadolinium concentration.

[5] = system: adult bovine menisci explants with defect; test: Contrast-enhanced T1-weighted MR imaging of meniscus explants with defect; conditions: 2 mM, pH 7.4, ~30 min bath; for qualitative contrast / signal intensity within soft tissue defect: T1-weighted images, 4.7 T
Experimental: To evaluate the efficacy of Complex A in highlighting soft tissue tears in comparison to Gd-DTPA, explants (8 mm in diameter) were obtained from adult bovine menisci. Well-defined defects were then introduced by using a punch to create a 4 mm internal core, which was left in place. Tissue explant blocks (n=9; 3 per group) were placed in a 48-well microplate and bathed in 2 mM Gd-DTPA, Complex A, or Saline (pH 7.4) for ˜30 min. The pH and concentration of Gd^+3 was kept constant throughout the experiment. T1-weighted images were then acquired in the axial plane (FIGS. 6A and 7). […] In the saline samples, the defects were extremely difficult to identify. To acquire a more quantitative comparison between the three groups, regions of interest (ROI) were drawn around the lateral defects and, following background subtraction (FIGS. 6B-D), the total signal intensity (area under curve) within the ROI was quantified and normalized to the length of the tear (FIG. 6E). The Wilcoxon signed-rank test was then used to compare contrast enhancement for the various contrast agents.
Adult bovine stifle joints were purchased from a commercial vendor (Animal Technologies, Tyler, Tex.), dissected in a sterile field, and the menisci removed. Biopsy punches (Miltex, York, Pa.) were used to produce 8 mm diameter full thickness samples in the axial plane. Well-defined defects were then introduced by using a 4 mm punch to create an internal core, which was left in place. […]
A region of interest (ROI) was determined for each MR image slice (n=6 per contrast agent, i.e. 2 slices per sample). […] The ROI height was determined for each slice individually, such that it could span the sample from top to bottom and exclude media and unrelated bright areas within the cartilage (e.g., cavities near the liquid-cartilage interface). […]
ROIs were partitioned into one-pixel tall lines spanning the entire width. […] All of the integrations in an ROI were then averaged to quantify that ROI's average signal intensity. […]

[6] = system: bovine meniscal fibrochondrocytes (MFCs); test: Cell-based safety assay on meniscal fibrochondrocyte monolayers; conditions: over 24 hours, basal media, compared with Saline
Experimental: (§1) The safety profile of Gd-DOTA-Am4 was assessed via both cell- and tissue-based assays. […] Similarly, after intra-articular injection of Saline, Gd-DTPA, or Gd-DOTA-Am4 into the joint space of an intact bovine femorotibial explant, the area fractions of live and dead cells in the cartilage and meniscus were equivalent after 3 hours (p>0.05) (FIG. 9).

[7] = system: cartilage and meniscus of an intact bovine femorotibial explant; test: Tissue-based safety assay, intra-articular injection into femorotibial explant; conditions: after 3 hours, compared with Saline, p>0.05
Experimental: as §1

SMILES	time Gd remained complexed (demetallation) ([1]; monitored by T1 relaxation time)	transmetallation (relaxation ratio R1(t)/R1(0)) [2]	demetallation (T1 relaxation time) [1]	T1 relaxation time of supernatant after incubation with cartilage microparticles vs control without microparticles [3]	longitudinal relaxivity [4] [mM⁻¹ s⁻¹]	qualitative contrast / signal intensity within soft tissue defect [5]	qualitative contrast / signal intensity within soft tissue defect ([5]; listed as Magnevist®)	total signal intensity within ROI normalized to length of tear (contrast enhancement) ([5]; statistical comparison between groups)	cell morphology, viability, and proliferation [6]	area fractions of live and dead cells in the cartilage and meniscus [7]
NCC(C(=O)O)N1CCN(C(CN)C(=O)O)CCN(C(CN)C(=O)O)CCN(C(CN)C(=O)O)CC1 (stereo not drawn) [Compound 6, 1,4,7,10-tetraazacyclododecane-N,N′,N″,N′″-(α-(aminomethyl))-tetraacetic acid]	at least 24 hours	–	–	–	–	–	–	–	–	–
O=C([O-])CN1CCN(CC(=O)[O-])CCN(CC(=O)O)CCN(CC(=O)[O-])CC1.[Gd+3] [Gd-DOTA, 1,4,7,10-tetraazacyclododecane-1,4,7,10-tetraacetic acid (DOTA) gadolinium complex]	–	No transmetallation was detected	rapid demetallation	no change in the relaxation time	–	–	–	–	–	–
O=C([O-])CN(CCN(CC(=O)[O-])CC(=O)O)CCN(CC(=O)[O-])CC(=O)O.[Gd+3] [Gd-DTPA, Diethylenetriaminepentaacetic acid (DTPA) gadolinium complex]	–	rapidly increased	rapid demetallation	no change in the relaxation time	3.9	much less contrast was observed within the defect at greater depths	less contrast was observed within the defect at greater depths	statistically significant improvement in contrast compared to saline	qualitatively similar between groups	equivalent
